According to patent US20230391817A1, “5ALPHA-HYDROXY-6BETA-[2-(1-H-IMIDAZOL-4-YL)-ETHYLAMINO]-CHOLESTAN-3BETA-OL ANALOGUES AND PHARMACEUTICAL COMPOSITIONS COMPRISING SAME FOR USE IN THE TREATMENT OF CANCER” (priority 2020, published 2023):

Key:
[1] = test system: BT-474 human mammary tumor cells; test: Cell viability of BT-474 cells, trypan blue; format: cell-based; conditions: BT-474, Trypan Blue, 48 h; for Mean LogIC50 (±SEM): log of IC50 in μM; for IC50: Homo sapiens
Procedure: (§1) Cell viability tests were also performed on BT-474 human mammary tumor cells (characterized as triple positive HER2+, ER+, PR+). The BT-474 cells were in a cell culture medium identical to the previous example and seeded in 24-well plates at 70 000 cells per well for cell viability determination using trypan blue, or in 96-well plates at 13 000 cells per well for cell viability determination using the MTT or LDH assay. After 96 hours (h) of culture under normal conditions, i.e. in an incubator at 37° C. with […], BT-474 cells were treated for 48 h with DX101, DX103, DX105, DX111, DX123 and DX127 at 100 nM, 1 μM, 2.5 μM and 10 μM. A control is also performed using the protocol described previously without treatment with DX101, DX103, DX105, DX111, DX123 and DX127.
(§2) After a 10-minute trypsin digestion at 37° C., the cell survival was also quantified by means of a trypan blue test with automatic counting using the Biorad TC20 machine (TC20™ Automated Cell Counter). The trypan blue test is based on the integrity of cell membranes, which is disrupted in the dead cells. Trypan blue stains dead cells blue. The Biorad TC20 cell counter counts the proportion of blue and non-blue cells, and reports the percentage of cells. The percentage of viability is then determined in each well relative to the untreated cells and the IC50 is determined as explained in the preceding example. Also, the percentage viability of the BT-474 cells was determined using the MTT and LDH assay, performed as described in the preceding example.

[2] = test system: murine 4T1 mammary tumor cells; test: Cell viability of 4T1 cells, MTT; format: cell-based; conditions: for IC50: Mus musculus, 4T1, MTT, 48 h; for cytotoxic activity compared with DX101: 4T1, Tables 1a, 1b and 1c (MTT, LDH, Green Cytotoxicity Assay)
Procedure: (§3) Cell viability tests were performed on murine 4T1 mammary tumor cells characterized as triple negative (HER2-, ER-, PR-).
(§4) For this experiment, a cell culture medium was prepared. The culture medium consisted of Dulbecco's Modified Eagle Medium (DMEM, sold by Westburg as LO BE12-604F), comprising 4.5 g/L glucose with L-glutamine, to which 10% fetal calf serum (FCS) and 50 U/ml penicillin/streptomycin are added. The 4T1 cells were introduced into this culture medium.
(§5) 96-well plates were seeded with 2000 4T1 cells per well. After 72 hours (h) of culture under normal condition, i.e. in an incubator at 37° C. at […], the 4T1 cells were treated for 48 h with DX101, DX103, DX111, DX123, DX125, DX127 and DX129 at 100 nM, 1 μM, 2.5 μM and 10 μM. A control condition (CTL) is also performed in parallel using the previously described protocol without treatment with the molecules DX101, DX103, DX111, DX123, DX125, DX127 or DX129.
(§6) The cell viability is measured by three different methods. For the first method, MTT labeling is performed at 48 hours. This test is based on the use of the tetrazolium salt MTT (3-(4,5-dimethylthiazol-2-yl)-2,5-diphenyltetrazolium bromide). Tetrazolium is reduced by mitochondrial succinate dehydrogenase in active live cells to formazan, a purple colored precipitate. The amount of precipitate formed is proportional to the amount of live cells but also to the metabolic activity of each cell. Thus, a simple determination of the optical density at 550 nm by spectroscopy makes it possible to determine the relative amount of live and metabolically active cells. After 48 hours, the medium is aspirated, and the cells are incubated with MTT (0.5 mg/ml in culture medium) for about 3 hours. The MTT solution is aspirated and the purple crystals are dissolved in dimethyl sulfoxide (DMSO). The OD (optical density) is measured at 550 nm. The percentage of viability is then determined in each well against the CTL and the IC50 (concentration at which 50% of cells remain alive) is determined for each molecule with the Prism software using a nonlinear regression curve (log(inhibitor) vs. Response).

[3] = test system: murine 4T1 mammary tumor cells; test: Cell viability of 4T1 cells, CellTox Green Cytotoxicity Assay; format: cell-based; conditions: Mus musculus, 4T1, Green Cytotoxicity Assay, 48 h
Procedure: as §3, §4, §5
For the third method, the percentage viability is determined using the CellTox Green Cytotoxicity Assay kit (Promega). This assay measures cell death via a change in membrane integrity. […] Consequently, the higher the fluorescence in the wells, the greater the cell death. […] The percentage of cell death is determined using the 100% cell death control (made from untreated cells incubated in the presence of the lysis solution for 30 minutes at 37° C. prior to the addition of Celltox green reagent), and the cell viability in each well is then deduced from this percentage. The IC50 is then determined as explained previously.

[4] = test system: murine 4T1 mammary tumor cells; test: Cell viability of 4T1 cells, LDH; format: cell-based; conditions: Mus musculus, 4T1, LDH, 48 h
Procedure: as §3, §4, §5
For the second method, the percentage of viability is determined by assaying the activity of the enzyme LDH (lactate dehydrogenase) in cell supernatants using the non radioactive cytotoxicity assay kit (Promega). LDH is an enzyme released in the supernatant of dead cells. The higher the LDH activity in the supernatant, the greater the cell death. In this enzyme assay, the LDH released converts a violet tetrazolium salt to a red colored formazan, absorbing at 490 nm. The intensity of the red color is proportional to the number of dead cells. After 48 h of treatment, the supernatants are transferred to a new 96-well plate and incubated for 30 minutes in the presence of substrate mix at room temperature. The reaction is stopped with stop solution reagent and the absorbance is determined at 490 nm. The percentage of cell death is determined here using a 100% maximum LDH activity control (made from untreated cells incubated in the presence of lysis solution for 45 minutes at 37° C. just prior to addition of the substrate mix), and the cell viability in each well is then deduced from this percentage. The IC50 is then determined as explained in the preceding paragraph.

[5] = Oral pharmacokinetic study in rat, LC/MS assay in plasma (Examples 21-24); format: in vivo; conditions: in vivo, po, 50 mg/kg
Procedure: The following study is an LC/MS assay in plasma of the various molecules over 3 days (11 measurement points in the end). The graphs are always presented in comparison with DX101 which is the reference.
Plasma sampling at 0 (without injection), 5, 10, 15, 30 min, 1 h, 4 h, 8 h, 24 h, 48 h, 72 h (11 points)

[6] = test system: BT-474 human mammary tumor cells; test: Cell viability of BT-474 cells, MTT; format: cell-based; conditions: for Mean LogIC50 (±SEM) / IC50: BT-474, MTT, 48 h; for Mean LogIC50 (±SEM): log of IC50 in μM; for activity compared with DX101: BT-474, Tables 2a, 2b and 2c (MTT, LDH, Trypan Blue); for IC50: Homo sapiens
Procedure: as §6, §1, §2

[7] = molecular target: T1, Cholesterol Epoxide Hydrolase (ChEH) (Homo sapiens, UniProt Q15125+Q9UBM7); test: Cholesterol Epoxide Hydrolase (ChEH) activity in MCF-7 cells, [14C]5,6α-EC metabolism by TLC; format: cell-based; conditions: 1 μM, 24 h, [14C]5,6α-EC 0.6 μM
T1 construct: endogenous in cells; host or cells: MCF-7
Excerpt: The compounds 5,6α-epoxycholesterol (5,6α-EC) and 5,6p-epoxycholesterol (5,6p-EC) are oxysterols involved in the anticancer pharmacology of tamoxifen, a widely used antitumor drug. Both are metabolized to cholestane-3β,5α,6β-triol (CT) by the enzyme cholesterol-5,6-epoxide hydrolase (ChEH), and CT is metabolized by the enzyme HSD11B2 (11β-hydroxysteroid dehydrogenase 2) to 6-oxocholestane-3β,5α-diol (OCDO), a tumor-promoting oncosterone.
MCF-7 cells are in a cell culture medium identical to that of Example 5 and are seeded in 6-well plates at 150 000 cells per well with three wells per treatment condition. […] Tamoxifen is used as a positive control for 3α-fluoro-5α-hydroxy-6β-[2-(1H-imidazol-4-yl)ethylamino]cholestane and 5α-hydroxy-6β-[2-(1H-imidazol-4-yl)ethylamino]cholestan-3β-ol (1 μM for all molecules).
After 24 hours of treatment, the media are collected and lipid extracts are prepared from the cell pellets by extraction with 100 μL of chloroform, 400 μL of methanol, and 300 μL of water.
The lipid extracts are analyzed by thin layer chromatography (TLC) using ethyl acetate (EtOAc) as eluent. The analysis is performed with a plate reader and then by autoradiography.

[8] = log of IC50 in μM, read-out: Mean LogIC50 (±SEM) (converted)

T1 sequence (Q15125 whole entry): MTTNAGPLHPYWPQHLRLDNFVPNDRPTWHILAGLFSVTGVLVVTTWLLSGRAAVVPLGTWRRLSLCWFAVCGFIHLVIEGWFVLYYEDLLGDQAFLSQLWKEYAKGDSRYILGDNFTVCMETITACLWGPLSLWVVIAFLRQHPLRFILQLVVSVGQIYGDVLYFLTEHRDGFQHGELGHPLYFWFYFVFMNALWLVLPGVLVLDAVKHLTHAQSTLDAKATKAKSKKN
T1 sequence (Q9UBM7 whole entry): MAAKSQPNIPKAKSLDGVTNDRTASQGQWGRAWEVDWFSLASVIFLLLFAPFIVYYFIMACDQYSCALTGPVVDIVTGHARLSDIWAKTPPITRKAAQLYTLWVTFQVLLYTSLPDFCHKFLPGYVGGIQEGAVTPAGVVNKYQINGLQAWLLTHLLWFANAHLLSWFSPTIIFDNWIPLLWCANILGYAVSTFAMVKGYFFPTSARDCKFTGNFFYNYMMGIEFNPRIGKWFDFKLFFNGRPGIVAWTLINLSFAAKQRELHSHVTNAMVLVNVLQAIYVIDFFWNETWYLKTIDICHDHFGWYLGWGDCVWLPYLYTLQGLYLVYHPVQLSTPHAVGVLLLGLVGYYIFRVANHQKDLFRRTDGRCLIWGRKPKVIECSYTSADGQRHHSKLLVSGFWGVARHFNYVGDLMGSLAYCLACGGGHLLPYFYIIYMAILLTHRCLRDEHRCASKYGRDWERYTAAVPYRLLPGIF

Row | SMILES | Mean LogIC50 (±SEM) [1] | IC50 [1] | IC50 [2, 8] | IC50 ([2]; read-out: IC50) | IC50 [3, 8] | IC50 ([3]; read-out: IC50) | IC50 [4, 8] | IC50 ([4]; read-out: IC50) | Area under the curve [5] | Max concentration [5] | Time for Cmax [5] | bioavailability / extent of absorption compared with DX101 [5] | speed of absorption compared with DX101 [5] | Mean LogIC50 (±SEM) [6] | activity compared with DX101 [6] | IC50 [6] | maximum concentration compared with DX101 [5] | cytotoxic activity compared with DX101 [2] | inhibition of ChEH activity [7]
1 | CO[C@H]1CC[C@]2(C)[C@H]3CC[C@]4(C)[C@@H]([C@H](C)CCCC(C)C)CC[C@H]4[C@@H]3C[C@@H](NCCc3c[nH]cn3)[C@@]2(O)C1 [DX103, 3β-methoxy-5α-hydroxy-6β-[2-(1H-imidazol-4-yl)ethylamino]cholestane] | 0.42 ± 0.25 | 2.62 µM | 3.16 µM | 3.16 µM | 2.63 µM | 2.63 µM | 4.37 µM | 4.4 µM | 105351 | 135 nM | 240 min | slightly lower bioavailability | faster absorption | 0.85 ± 0.05 | similar | 7.08 µM | – | – | –
2 | CCO[C@H]1CC[C@]2(C)[C@H]3CC[C@]4(C)[C@@H]([C@H](C)CCCC(C)C)CC[C@H]4[C@@H]3C[C@@H](NCCc3c[nH]cn3)[C@@]2(O)C1 [DX105, 3β-ethoxy-5α-hydroxy-6β-[2-(1H-imidazol-4-yl)ethylamino]cholestane] | 0.55 ± 0.14 | 3.57 µM | – | – | – | – | – | – | 145590 | 197 nM | 240 min | equivalent to (or even slightly higher than) | much faster absorption | 0.86 ± 0.04 | similar | 4.08 µM | much higher maximum concentration | – | –
3 | CCCCCCCCO[C@H]1CC[C@]2(C)[C@H]3CC[C@]4(C)[C@@H]([C@H](C)CCCC(C)C)CC[C@H]4[C@@H]3C[C@@H](NCCc3c[nH]cn3)[C@@]2(O)C1 [DX115, 3β-octanoxy-5α-hydroxy-6β-[2-(1H-imidazol-4-yl)ethylamino]cholestane] | – | – | 37.2 µM | > 10 µM | 25.1 µM | > 10 µM | 17.4 µM | > 10 µM | – | – | – | – | – | – | – | – | – | – | –
4 | CC(C)CCC[C@@H](C)[C@H]1CC[C@H]2[C@@H]3C[C@@H](NCCc4c[nH]cn4)[C@@]4(O)C[C@@H](N=[N+]=[N-])CC[C@]4(C)[C@H]3CC[C@]12C [DX123, 3β-azido-5α-hydroxy-6β-[2-(1H-imidazol-4-yl)ethylamino]cholestane] | – | – | 5.89 µM | 5.94 µM | 2.09 µM | > 10 µM | 1.45 µM | 1.45 µM | 6711 | 721 nM | 4 min | twofold higher bioavailability | – | – | tends to be superior | – | – | tendency to be higher | –
5 | CC(C)CCC[C@@H](C)[C@H]1CC[C@H]2[C@@H]3C[C@@H](NCCc4c[nH]cn4)[C@@]4(O)C[C@@H](N)CC[C@]4(C)[C@H]3CC[C@]12C [DX125, 3β-amino-5α-hydroxy-6β-[2-(1H-imidazol-4-yl)ethylamino]cholestane] | – | – | 145 µM | > 10 µM | 22.4 µM | > 10 µM | 36.3 µM | > 10 µM | – | – | – | – | – | – | – | – | – | lower | –
6 | CC(=O)N[C@H]1CC[C@]2(C)[C@H]3CC[C@]4(C)[C@@H]([C@H](C)CCCC(C)C)CC[C@H]4[C@@H]3C[C@@H](NCCc3c[nH]cn3)[C@@]2(O)C1 [DX127, 3β-acetamido-5α-hydroxy-6β-[2-(1H-imidazol-4-yl)ethylamino]cholestane] | – | – | 11.7 µM | 11.7 µM | 11 µM | 10.9 µM | 7.08 µM | 7.09 µM | – | – | – | – | – | – | similar | – | – | lower | –
7 | CC(C)CCC[C@@H](C)[C@H]1CC[C@H]2[C@@H]3C[C@@H](NCCc4c[nH]cn4)[C@@]4(O)C[C@@H](S(C)(=O)=O)CC[C@]4(C)[C@H]3CC[C@]12C [DX129, 3β-methylsulfonyl-5α-hydroxy-6β-[2-(1H-imidazol-4-yl)ethylamino]cholestane] | – | – | 15.1 µM | 15.1 µM | 16.2 µM | 16.2 µM | 3.89 µM | 3.87 µM | – | – | – | – | – | – | – | – | – | lower | –
8 | CC/C(=C(\c1ccccc1)c1ccc(OCCN(C)C)cc1)c1ccccc1 [tamoxifen, reference compound] | – | – | – | – | – | – | – | – | – | – | – | – | – | – | – | – | – | – | total inhibition
